The values below come from patent US20250297232A1, “BACTERIAL MYELOPEROXIDASE-CATALASE AND APPLICATIONS THEREOF” (UNIVERSITÉ DE BORDEAUX, priority 2022, published 2025).

Usually Kd stands for the constant that tells how readily two partners part at equilibrium. Read a low Kd as tighter binding. For orientation: Ki means a measure of affinity in units of concentration, obtained from inhibition or displacement.

Read-outs that look alike come from different tables or passages of the source.

Test [1] concerns the target Rhodopirellula baltica RbMPO, wild type, SEQ ID NO: 1. As to the kind of experiment: Pre-steady-state kinetics: compound I formation and return to native state (stopped-flow, 412 nm). The format is biochemical. The settings on record: for Ki: H2O2 excess. On the procedure: In the first moment after an enzyme is mixed with a substrate, no product has been formed and no intermediates exist. The study of the next few milliseconds of the reaction is called pre-steady-state kinetics.
Kinetic parameters under pre-steady-state condition were performed with a Biologic SFM400 stopped-flow at 412 nm, 37° C. and with 50 mM sodium phosphate buffer at pH7.5. […] An exponential linear fit was applied to each kinetic using the following formula: […]
where p1 corresponds to the exponential magnitude, p2 to the decay time Tau (s) and
The heme Soret band is at 412 nm for the native Fe^III iron form, which is why the decrease in absorbance was followed at this particular wavelength as a function of time. The rate constant was measured using the A412nm curves as a function of time (data not shown). By applying Eq.4 to the exponential part of each kinetic, the values of Tau (s) were determined and the kobs (s^−1) were calculated.
The return of the enzyme to its native state was studied by the impact of increasing concentrations of (pseudo)-halides substrates on compound I (FIG. 9B). […] It is the time difference (s) between the two characteristic steps that allowed the calculation of the values of the Vreturn(μM^−1.s^−1) values: […]

The subject of test [2] is Rhodopirellula baltica RbMPO variant D202A, E316A (of SEQ ID NO: 1). The text has this: (§1) The chlorination activity of myeloperoxidases can be determined using the aminophenyl fluorescein (APF) probe. One can indeed detect the oxidation of APF (non-fluorescent) by HOCl into fluorescein, a fluorescent molecule that is detectable at λex=485 nm and λem=525 nm. According to such test, the fluorescence measured is proportional to the quantity of fluorescein, which itself is proportional to the quantity of HOCl produced by the myeloperoxidase.
(§2) Measurements of chlorination activity were herein performed in Corning 384-well clear-bottom (flat-bottom) plates with a reaction volume of 20 μL, in triplicate at 37° C., and in a 50 mM NaPi buffer at pH7.5. […] A 10 to 30 minutes kinetic was performed for each range value and the fluorescence intensity was compared to that of the standard fluorescein range. Thus, the measured fluorescence is proportional to the amount of fluorescein, which in turn is proportional to the amount of HOCl produced by the RbMPOs.
(§3) The slopes were measured at the onset of the reaction in order to be in initial velocity. From these values, it was possible to calculate the kss with the following equation: […]

Test [3] concerns Rhodopirellula baltica RbMPO variant N317M (of SEQ ID NO: 1). The settings on record: N317M 1 μM, H2O2 range, 500 mM NaCl, 10 μM APF, 37° C., pH7.5.
Description: as §1, §2, §3

Test [4] deals with Rhodopirellula baltica RbMPO variant H407A (of SEQ ID NO: 1). The settings on record: read-out: KM H2O2; H407A 1 μM; H2O2 range, 500 mM NaCl, 10 μM APF, 37° C., pH7.5.
Test [5] deals with Rhodopirellula baltica RbMPO, wild type, SEQ ID NO: 1. The following applies: H2O2 range, 267 nM wt RbMPO; for Km: read-out: KMapp (H2O2).
Description: Initial rate measurements under steady state conditions were performed with a BioLogic SFM400 stopped-flow by using a single-mixing mode and an Xe/Hg lamp and a TC100/10 cell. […] At least five 120 s shots were monitored for each value of the substrate range with the following sample rates: 20 μs, 20 ms, 20 ms with 2000 points per period. Slopes were calculated from the average of the shorts for each concentration and kss (s^−1) were determined from the slopes using the following formula:
The collected data were analysed with Origin software, then saturation curves for each substrate were fitted either by non-linear regression with or without inhibition by excess of substrate (Eq. 1 and 2) with [S]the substrate of interest, or by linear regression (Eq. 3) with a the slope and b the y-intercept.
The stopped-flow was used to define the steady-state kinetic parameters of RbMPOs. […] From the averages of the curves obtained for each shot, the slopes in Abs.s^−1 were calculated and then converted into kss by the following relation:
The test system of test [6] is Rhodopirellula baltica RbMPO variant Q199A (of SEQ ID NO: 1). The settings on record: Q199A 1 μM, H2O2 range, 500 mM NaCl, 10 μM APF, 37° C., pH7.5.
Test [7] deals with Rhodopirellula baltica RbMPO, wild type, SEQ ID NO: 1. The following applies: 37° C.; for Km: read-out: KM (catalase, H2O2); for Ki: read-out: Ki (catalase, H2O2). The procedure:
Catalase activity was measured using the stopped-flow set-up, which was configured to measure absorbance decay at 240 nm and at 37° C.

The mark [8] stands for this setting: H2O2, wt RbMPO 1.78 μM, 37° C., pH7.5.

The compound `OO` [H2O2, hydrogen peroxide] gave a Kd in test [1] (setting [8]) of 0.0569 ± 0.0201 mM. In addition, the “kobsmax (compound I formation)” value in test [1] (setting [8]) stood at 57.09 ± 8.60 s⁻¹. For the same compound, the Ki is 10.9 mM in test [1] (read-out: Ki (compound I formation, text)); 10.9 ± 3 mM in test [1] (wt RbMPO 1.78 μM, 37° C., pH7.5, read-out: Ki (compound I formation)); 96.3 ± 31.9 mM in test [2] (read-out: Ki H2O2, E316A 1 μM, H2O2 range, 500 mM NaCl, 10 μM APF, 37° C., pH7.5); 48.1 ± 15.4 mM in test [3] (read-out: Ki H2O2); 18.3 ± 5.34 mM in test [6] (read-out: Ki H2O2); 0.54 ± 0.57 mM in test [7] (pH 7, 2 μM wt RbMPO). Besides, in test [7] (pH 7.5, 2 μM wt RbMPO), the inhibitory constant (Ki) was found to be 1.07 ± 0.7 mM. In addition, the Km was determined as 220 ± 60 µM in test [2] (read-out: KM H2O2, E316A 1 μM, H2O2 range, 500 mM NaCl, 10 μM APF, 37° C., pH7.5); 320 ± 90 µM in test [3] (read-out: KM H2O2); 270 ± 90 µM in test [4]; 230 ± 210 µM in test [5] (Br 100 mM); 120 ± 40 µM in test [5] (SCN 5 mM); 490 ± 150 µM in test [6] (read-out: KM H2O2). The Km was found to be 40 ± 40 µM in test [7] (pH 7, 2 μM wt RbMPO) and 170 ± 110 µM in test [7] (pH 7.5, 2 μM wt RbMPO). In addition, the “kcatapp (H2O2)” value in test [5] (Br 100 mM) is 113.72 ± 72.11 s⁻¹; in test [5] (SCN 5 mM), 203.24 ± 45.46 s⁻¹. The “kcat (catalase, H2O2)” value in test [7] (pH 7, 2 μM wt RbMPO) was found to be 1.62 ± 0.86 s⁻¹; in test [7] (pH 7.5, 2 μM wt RbMPO), 56.64 ± 20.62 s⁻¹.
